Test results reported in patent US5434256A, “Diamine platinum complexes as antitumor agents” (priority 1994, dated 1995).
Entries after “also recorded” stand apart in the source; their conditions may differ.

Experiments:
[1] = system: L1210/0 cells; test: Modified MTT cytotoxicity assay, murine leukemia L1210/0 (Example 2, Table 3); format: cell-based; details: L1210/0; MTT, continuous exposure 5 days
[2] = system: Murine Leukemia L1210/0; test: In vivo antitumor activity against murine leukemia L1210/0 (Example 3, Table 5); parameters: species or system BDF1 mice; details: for MTD (Maximum Tolerated Dose) / % T/C (mean survival time of treated/mean survival time of control) × 100 / long term survivors/no. tested: L1210/0 i.p., BDF1 mice, drug i.p. days 1, 5, 9; for % T/C (mean survival time of treated/mean survival time of control) × 100: at optimal dose/MTD; for long term survivors/no. tested: figures in parenthesis
Description: (§1) Each of the platinum complexes was evaluated in vivo against L1210/0, L1210/DDP, L1210/DACH and M5076 cells at several dose levels. […] The data at optimal doses are reproduced in Tables 4-7 along with data for the cyclobutanedicarboxylato, aquasulfato, methylmalonato and tartronato analogs (compounds 1-4 in Table 1).
BDF1 mice inoculated i.p. with 10^5 L1210 Leukemiacells on day 0 and
(§2) drug administered i.p. on days 1, 5, and 9. MTD = Maximum Tolerated Dose
(§3) (mg/kg/injection), % T/C = (mean survival time of treated/mean survival
time of control) × 100. Figures in parenthesis indicate long term

[3] = system: Murine Leukemia 1210/DDP; test: In vivo antitumor activity against murine leukemia L1210/DDP (Example 3, Table 7); parameters: species or system BDF1 mice; details: for % T/C (mean survival time of treated/mean survival time of control) × 100: at optimal dose/MTD
Description: as §1
(§4) BDF1 mice inoculated i.p. with 10^5 L1210 Leukemia cells on day 0 and
drug administed i.p. on days 1, 5, and 9. MTD = Maximum Tolerated Dose
as §3
(§5) time of control) × 100. Figures in parenthesis indicated long term

[4] = Renal and hematological toxicity, single i.p. dose (Table 8); details: for BUN d.5: blood urea nitrogen, saline control 20.9; for BUN d.5 / Body Wt. on d.5 / Survivors on d.14: single i.p. dose (mg/kg): 1,4-DACH-Pt^II CBDCA 300, 1,4-DACH-Pt^IV Cl4 8.0, Tetraplatin 8.0, Cis-platin 12.0, Carboplatin 150; for Body Wt. on d.5: mean, S.D. less than 20%; for myelotoxicity / myelosuppression (in words): leucopenia
[5] = system: A2780 cells; test: Modified MTT cytotoxicity assay, human ovarian A2780 (Example 2, Table 3); format: cell-based; details: continuous exposure (5 days in table footnote; 7 days in text)
[6] = system: M5076 Tumor Model; test: In vivo antitumor activity against M5076 tumor model (Example 3, Table 4); parameters: species or system BDF1 mice; TGD (Tumor Growth Delay): unit not given beside the values; details: M5076 s.c., BDF1 mice, i.p. days 7, 14, 21, 28; for TGD (Tumor Growth Delay): at optimal dose/MTD
Description: as §1
BDF1 mice inoculated s.c. with 10' M5076 cells on day 0 and drug
administered i.p on days 7, 14, 21, and 28. MTD = Maximum Tolerated Dose
(mg/kg/injection), TGD = Tumor Growth Delay

[7] = system: Murine Leukemia L1210/DACH; test: In vivo antitumor activity against murine leukemia L1210/DACH (Example 3, Table 6); parameters: species or system BDF1 mice; details: for MTD (Maximum Tolerated Dose) / % T/C (mean survival time of treated/mean survival time of control) × 100 / long term survivors/no. tested: L1210/DACH i.p., BDF1 mice, drug i.p. days 1, 5, 9; for % T/C (mean survival time of treated/mean survival time of control) × 100: at optimal dose/MTD; for long term survivors/no. tested: figures in parenthesis
Description: as §1, §4, §2, §3, §5

[8] = system: L1210/0 cells; test: MTT cytotoxicity, L1210/0 (Example 5, Table 10); format: cell-based, murine; details: 72 hr (3 days) continuous exposure
[9] = system: L1210/DDP cells; test: MTT cytotoxicity, cisplatin-resistant L1210/DDP (Example 5, Table 10); format: cell-based, murine; details: 72 hr (3 days) continuous exposure
[10] = system: L1210/DACH cells; test: MTT cytotoxicity, tetraplatin-resistant L1210/DACH (Example 5, Table 10); format: cell-based, murine; details: 72 hr (3 days) continuous exposure
[11] = L1210/DDP i.p., BDF1 mice, drug i.p. days 1, 5, 9

SMILES: NC1CCC(N)CC1.O.O=C([O-])C1(C(=O)[O-])CCC1.[Pt+2] [Compound 1, Cis-1,4-diaminocyclohexane-1,1-cyclobutanedicarboxylato-platinum(II).H2 O]
- IC50 [1]: 1600 nM
- MTD (Maximum Tolerated Dose) [2]: 200 mg/kg/injection
- % T/C (mean survival time of treated/mean survival time of control) × 100 [2]: 195%
- antitumor activity in vivo against L1210/DDP (in words) [3]: inactive
- BUN d.5 [4]: 18.0 mg %
- Body Wt. on d.5 [4]: 99 % on control
- IC50 [5]: 430 nM
- MTD (Maximum Tolerated Dose) [6]: 200 mg/kg/injection
- TGD (Tumor Growth Delay) [6]: 42.3
- MTD (Maximum Tolerated Dose) [7]: 200 mg/kg/injection
- % T/C (mean survival time of treated/mean survival time of control) × 100 [7]: 180%
- long term survivors/no. tested [7]: 1/5

SMILES: NC1CCC(N)CC1.O.O=S(=O)([O-])[O][Pt+] (stereo not drawn) [Compound 2, Cis-1,4-Diaminocyclohexaneaquasulfatoplatinum(II)]
- IC50 [1]: 80 nM
- MTD (Maximum Tolerated Dose) [2]: 1.56 mg/kg/injection
- % T/C (mean survival time of treated/mean survival time of control) × 100 [2]: > 571%
- long term survivors/no. tested [2]: 3/5
- IC50 [5]: 50 nM
- MTD (Maximum Tolerated Dose) [6]: 3.1 mg/kg/injection
- TGD (Tumor Growth Delay) [6]: 12.1
- MTD (Maximum Tolerated Dose) [7]: 1.56 mg/kg/injection
- % T/C (mean survival time of treated/mean survival time of control) × 100 [7]: 140%
- long term survivors/no. tested [7]: 1/5

SMILES: CC(C(=O)[O-])C(=O)[O-].N[C@H]1CC[C@@H](N)CC1.O.[Pt+2] [Compound 3, Cis-1,4-Diaminocyclohexanemethylmalonatoplatinum(II). H2 O]
- IC50 [1]: 280 nM
- MTD (Maximum Tolerated Dose) [2]: 200 mg/kg/injection
- % T/C (mean survival time of treated/mean survival time of control) × 100 [2]: 382%
- long term survivors/no. tested [2]: 1/5
- IC50 [5]: 130 nM
- MTD (Maximum Tolerated Dose) [6]: 200 mg/kg/injection
- TGD (Tumor Growth Delay) [6]: 23.62
- MTD (Maximum Tolerated Dose) [7]: 100 mg/kg/injection
- % T/C (mean survival time of treated/mean survival time of control) × 100 [7]: 180%
- long term survivors/no. tested [7]: 1/5

SMILES: NC1CCC(N)CC1.O=C1[O][Pt][O]C(=O)C1O [Compound 4, Cis-1,4-diaminocyclohexanetartronatoplatinum(II)]
- IC50 [1]: 500 nM
- MTD (Maximum Tolerated Dose) [2]: 25 mg/kg/injection
- % T/C (mean survival time of treated/mean survival time of control) × 100 [2]: 406%
- long term survivors/no. tested [2]: 1/5
- MTD (Maximum Tolerated Dose) [3, 11]: 50 mg/kg/injection
- % T/C (mean survival time of treated/mean survival time of control) × 100 [3, 11]: 187%
- IC50 [5]: 110 nM
- MTD (Maximum Tolerated Dose) [6]: 50 mg/kg/injection
- TGD (Tumor Growth Delay) [6]: 30.66
- antitumor activity in vivo against L1210/DACH (in words) ([7]; L1210/DACH): highly active
- MTD (Maximum Tolerated Dose) [7]: 50 mg/kg/injection
- % T/C (mean survival time of treated/mean survival time of control) × 100 [7]: 343%
- long term survivors/no. tested [7]: 4/5
- cure rate ([7]; L1210/DACH, Table 6): 80%

SMILES: N[C@H]1CC[C@@H](N)CC1.O=C([O-])CC(=O)[O-].[Pt+2] [Compound 6, Cis-1,4-diaminocyclohexanemalonatoplatinum(II)]
- IC50 [1]: 340 nM
- IC50 [5]: 80 nM

SMILES: CCCC(=O)[O][Pt]([Cl])([Cl])[O]C(=O)CCC.NC1CCC(N)CC1 [Compound 22, (cis-1,4-DACH)PtCl2 trans-(butyrate)2]
- IC50 [8]: 1.2 nM
- IC50 [9]: 130 nM
- IC50 [10]: 20 nM

SMILES: CC(=O)[O][Pt]([Cl])([Cl])[O]C(C)=O.NC1CCC(N)CC1 [Compound 11, Cis-1,4-diamtinocyclohexanedichlorodiacetatoplatinum (IV)]
- IC50 [5]: 45 nM

SMILES: CCC(=O)[O][Pt]([Cl])([Cl])[O]C(=O)CC.NC1CCC(N)CC1 [Compound 21, (cis-1,4-DACH)PtCl2 trans-(propionate)2]
- IC50 [8]: 5.5 nM
- IC50 [9]: 500 nM
- IC50 [10]: 40 nM

SMILES: CCCCCC(=O)[O][Pt]1([Cl])([Cl])([O]C(=O)CCCCC)[NH]C2CCCCC2[NH]1 [Compound 19, (R,R-1,2-DACH)PtCl2 trans-(hexanoate)2]
- IC50 [8]: 40 nM
- IC50 [9]: 230 nM
- IC50 [10]: 1500 nM

SMILES: CCC(=O)[O][Pt]([Cl])([Cl])[O]C(=O)CC.N[C@@H]1CCCC[C@H]1N [Compound 16, (R,R-1,2-DACH)PtCl2 trans-(Propionate)2]
- IC50 [8]: 110 nM
- IC50 [9]: 560 nM
- IC50 [10]: 550 nM

SMILES: N.N.O=C([O-])C1(C(=O)[O-])CCC1.[Pt+2] [Carboplatin]
- BUN d.5 [4]: 15.8 mg %
- Survivors on d.14 [4]: 0/5
- Body Wt. on d.5 [4]: 79 % on control
- myelotoxicity / myelosuppression (in words) ([4]; single i.p. dose): myelosuppressive

SMILES: NC1CCC(N)CC1.O=C1[O][Pt]([Cl])([Cl])[O]C(=O)C12CCC2 [Compound 9, Cis-1,4-diaminocyclohexane-1,1-cyclobutanedicarboxylato-dichloroplatinum(IV)]
- IC50 [1]: 140 nM
- IC50 [5]: 50 nM

SMILES: CCCCC(=O)[O][Pt]([Cl])([Cl])[O]C(=O)CCCC.N[C@@H]1CCCC[C@H]1N [Compound 18, (R,R-1,2-DACH)PtCl2 trans(pentanoate)2]
- IC50 [8]: 40 nM
- IC50 [9]: 270 nM
- IC50 [10]: 240 nM

SMILES: CCCCCCC(=O)[O][Pt]([Cl])([Cl])[O]C(=O)CCCCCC.N[C@@H]1CCCC[C@H]1N [Compound 20, (R,R-1,2-DACH)PtCl2trans(heptanoate)2]
- IC50 [8]: 150 nM
- IC50 [9]: 700 nM
- IC50 [10]: 2300 nM

SMILES: NC1CCC(N)CC1.[OH][Pt]([OH])([Cl])[Cl] (stereo not drawn) [Compound 8, Cis-1,4-diaminocyclohexanedichlorodihydroxoplatinum(IV)]
- IC50 [1]: 880 nM
- IC50 [5]: 140 nM

SMILES: CCCC(=O)[O][Pt]([Cl])([Cl])[O]C(=O)CCC.N[C@@H]1CCCC[C@H]1N [Compound 17, (R,R-1,2-diaminocyclohexane)PtCl2 trans(butyrate)2]
- IC50 [8]: 40 nM
- IC50 [9]: 220 nM
- IC50 [10]: 170 nM

SMILES: NC1CCC(N)CC1.[Cl][Pt]([Cl])([Cl])[Cl] (stereo not drawn) [Compound 7, Cis-1,4-Diaminocyclohexanetetrachloroplatinum(IV)]
- IC50 [1]: 120 nM
- antitumor activity in vivo against L1210/0 (in words) ([2]; L1210/0): excellent activity; also recorded: comparable or slightly greater activity
- MTD (Maximum Tolerated Dose) [2]: 3.1 mg/kg/injection
- % T/C (mean survival time of treated/mean survival time of control) × 100 [2]: 335%
- long term survivors/no. tested [2]: 2/5
- antitumor activity in vivo against L1210/DDP (in words) [3]: good activities; also recorded: comparable or slightly greater activity
- MTD (Maximum Tolerated Dose) [3, 11]: 3.1 mg/kg/injection
- % T/C (mean survival time of treated/mean survival time of control) × 100 [3, 11]: 170%
- long term survivors/no. tested ([3]; L1210/DDP i.p., BDF1 mice, drug i.p. days 1, 5, 9, figures in parenthesis): 1/5
- BUN d.5 [4]: 21.3 mg %
- Survivors on d.14 [4]: 4/5
- Body Wt. on d.5 [4]: 89 % on control
- nephrotoxicity (in words) ([4]; single i.p. dose, BUN): did not show any indication of nephrotoxicity
- myelotoxicity / myelosuppression (in words) ([4]; single i.p. dose): did not show any indication of nephrotoxicity or myelotoxicity
- IC50 [5]: 90 nM
- MTD (Maximum Tolerated Dose) [6]: 3.1 mg/kg/injection
- TGD (Tumor Growth Delay) [6]: 18.74
- antitumor activity in vivo against L1210/DACH (in words) ([7]; L1210/DACH): good activities; also recorded: good activity
- MTD (Maximum Tolerated Dose) [7]: 3.1 mg/kg/injection
- % T/C (mean survival time of treated/mean survival time of control) × 100 [7]: 146%

SMILES: NC1CCC(N)CC1.O=C1[O][Pt]([Cl])([Cl])[O]C1=O [Compound 10, Cis-1,4-diaminocyclohexaneoxalatodichloroplatinum(IV)]
- IC50 [1]: 200 nM
- IC50 [5]: 51 nM

SMILES: NC1CCC(N)CC1.O=C1[O][Pt][O]C1=O (stereo not drawn) [Compound 5, Cis-1,4-diaminocyclohexaneoxalatoplatinum(II)]
- IC50 [1]: 240 nM
- IC50 [5]: 60 nM
